Assay [1] has as its system P. aeruginosa ATCC 27853. Description: MIC assay, CLSI broth microdilution, P. aeruginosa ATCC 27853 (APAE001). The assay is classed as cell-based. Conditions: Pseudomonas aeruginosa. In outline: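 Test compounds were diluted two-fold at 2× strength in Mueller Hinton Broth, then combined 1:1 with saline-suspended bacteria from an overnight agar colony to reach 5×10^5 CFU/mL. Incubation followed at 35° C. for 20 hours in ambient air, per CLSI reference methods.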
On the technique in general: In broth dilution the organism is exposed to a series of concentrations in liquid medium.

Assay [2] relates to P. aeruginosa ATCC 27853. Nature of the assay: murine septicemia model of infection, P. aeruginosa. The assay is classed as in vivo. The conditions noted are these: mice inoculated IP, single SC or IV dose 1 hour after challenge, mortality 7 days; ED50 values are mg/kg. As for the experimental part: Two models were run on each compound, using E. coli and P. aeruginosa QC bacterial strains. Both studies employed the same design. […] At 1 hour after bacterial challenge, the mice received a single SC or IV […] dose of vehicle or test substance to assess in vivo anti-infective activity. Mortality was recorded once daily for 7 days after bacterial inoculation.

In the next assay the test system is E. coli ATCC 25922. Description: MIC assay, CLSI broth microdilution, E. coli ATCC 25922 (AECO001). The assay is classed as cell-based. The conditions noted are these: Escherichia coli, read-out: MIC AECO001. The gist of the method: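 CLSI broth microdilution (M7-A7): two-fold compound dilutions in Mueller Hinton Broth, inoculum 5×10^5 CFU/mL final. Plates incubated 20 hours at 35° C. in ambient air; MIC read as lowest inhibitory concentration.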

Where [3] appears, read: ATCC27853, Table 2, read-out: MIC P. aeruginosa.
Where [4] appears, read: APAE001 is ATCC27853, 35° C., 20 hours, read-out: MIC APAE001.
The mark [5] stands for this setting: AECO001 is ATCC25922, 35° C., 20 hours.
The mark [6] stands for this setting: ATCC27853, 20 h, read-out: MIC APAE001.

As usually defined, the MIC is the lowest concentration that inhibits growth of the organism.

Converted amounts (≈) assume the structure as drawn. Where two headings read alike, the source gives them in different places. Bounds are passed on as bounds.

Turning to `CN[C@@H]1[C@@H](O)[C@@H](O[C@@H]2[C@@H](O)[C@H](O[C@H]3OC(CNCC4CCNCC4)=CC[C@H]3N)[C@@H](N)C[C@H]2NC(=O)[C@@H](O)CN)OC[C@]1(C)O` [Example 15, 6′-(Methyl-piperidin-4-yl)-1-(3-amino-2(S)-hydroxy-propionyl)-sisomicin], the MIC in the assay on P. aeruginosa ATCC 27853 [1] (setting [3]) was 1 to 16 µg/mL (≈ 1.58 to 25.3 µM); with P. aeruginosa ATCC 27853 [1] (setting [4]) it was 1 to 16 µg/mL (≈ 1.58 to 25.3 µM); with E. coli ATCC 25922 (setting [5]), less than 1 µg/mL. Also, the “ED50/MIC P. aeruginosa” value in the assay with P. aeruginosa ATCC 27853 [2] turned out to be 1.

As to `CN[C@@H]1[C@@H](O)[C@@H](O[C@@H]2[C@@H](O)[C@H](O[C@H]3OC(CN)=CC[C@H]3NC3CNC3)[C@@H](N)C[C@H]2NC(=O)[C@@H](O)CCN)OC[C@]1(C)O` [Example 96, 2′-(Azetidin-3-yl)-1-(4-amino-2(S)-hydroxy-butyryl)-sisomicin], the MIC with P. aeruginosa ATCC 27853 [1] (setting [3]) was 1 to 16 µg/mL (≈ 1.66 to 26.5 µM); with P. aeruginosa ATCC 27853 [1] (setting [4]) it was 1 to 16 µg/mL (≈ 1.66 to 26.5 µM); with E. coli ATCC 25922 (setting [5]), less than 1 µg/mL. The “ED50/MIC P. aeruginosa” value in the assay with P. aeruginosa ATCC 27853 [2] came out at 3.

Take `CN[C@@H]1[C@@H](O)[C@@H](O[C@@H]2[C@@H](O)[C@H](O[C@H]3OC(CN)=CC[C@H]3NCC(O)CO)[C@@H](N)C[C@H]2NC(=O)[C@@H](O)CCN)OC[C@]1(C)O` (stereo partly drawn) [Example 100, 2′-(2-Hydroxy-propanol)-1-(4-amino-2(S)-hydroxy-butyryl)-sisomicin]: the MIC in the assay on P. aeruginosa ATCC 27853 [1] (setting [6]) was greater than 16 µg/mL; in the assay on E. coli ATCC 25922 (ATCC25922, 20 h), 1 to 16 µg/mL (≈ 1.61 to 25.7 µM).

Take `CN[C@@H]1[C@@H](O)[C@@H](O[C@@H]2[C@@H](O)[C@H](O[C@H]3OC(CN)=CC[C@H]3NCC(O)CN)[C@@H](N)C[C@H]2NC(=O)[C@@H](O)CCN)OC[C@]1(C)O` (stereo partly drawn) [Example 101, 2′-(2-Hydroxy-3-amino-propyl)-1-(4-amino-2(S)-hydroxy-butyryl)-sisomicin]: the MIC with P. aeruginosa ATCC 27853 [1] (setting [6]) was 1 to 16 µg/mL (≈ 1.61 to 25.7 µM); in the assay on E. coli ATCC 25922 (ATCC25922, 20 h) it was less than 1 µg/mL.

With `CN[C@@H]1[C@@H](O)[C@@H](O[C@@H]2[C@@H](O)[C@H](O[C@H]3OC(CN)=CC[C@H]3NCCCCN)[C@@H](N)C[C@H]2NC(=O)[C@@H](O)CCN)OC[C@]1(C)O` [Example 102, 2′-(4-Amino-butyl)-1-(4-amino-2(S)-hydroxy-butyryl)-sisomicin], the MIC with P. aeruginosa ATCC 27853 [1] (setting [6]) was 1 to 16 µg/mL (≈ 1.61 to 25.8 µM); in the assay on E. coli ATCC 25922 (ATCC25922, 20 h) it was less than 1 µg/mL.

`CN[C@@H]1[C@@H](O)[C@@H](O[C@@H]2[C@@H](O)[C@H](O[C@H]3OC(CN)=CC[C@H]3NC[C@H]3C[C@H](N)C3)[C@@H](N)C[C@H]2NC(=O)[C@@H](O)CCN)OC[C@]1(C)O` [Example 104, 2′-(Methyl-trans-3-amino-cyclobutyl)-1-(4-amino-2(S)-hydroxy-butyryl)-sisomicin]: the minimum inhibitory concentration (MIC) in the assay with P. aeruginosa ATCC 27853 [1] (setting [6]) was 1 to 16 µg/mL (≈ 1.58 to 25.3 µM); in the assay with E. coli ATCC 25922 (ATCC25922, 20 h) it was less than 1 µg/mL.

Turning to `CN[C@@H]1[C@@H](O)[C@@H](O[C@@H]2[C@@H](O)[C@H](O[C@H]3OC(CNC(=N)N)=CC[C@H]3NC(=N)N)[C@@H](N)C[C@H]2N)OC[C@]1(C)O` [Example 105, 6′,2′-bis-Guanidinium-sisomicin], the MIC with P. aeruginosa ATCC 27853 [1] (setting [6]) was greater than 16 µg/mL; with E. coli ATCC 25922 (ATCC25922, 20 h), greater than 16 µg/mL.

For `CN[C@@H]1[C@@H](O)[C@@H](O[C@@H]2[C@@H](O)[C@H](O[C@H]3OC(CNCCO)=CC[C@H]3NC(=N)N)[C@@H](N)C[C@H]2N)OC[C@]1(C)O` [Example 106, 6′-(2-Hydroxy-ethyl)-2′-guanidinium-sisomicin], the MIC in the assay on P. aeruginosa ATCC 27853 [1] (setting [6]) was 1 to 16 µg/mL (≈ 1.87 to 30 µM); with E. coli ATCC 25922 (ATCC25922, 20 h) it was less than 1 µg/mL.

As to `CN[C@@H]1[C@@H](O)[C@@H](O[C@@H]2[C@@H](O)[C@H](O[C@H]3OC(CNC[C@H]4C[C@H](N)C4)=CC[C@H]3NC(=N)N)[C@@H](N)C[C@H]2N)OC[C@]1(C)O` [Example 107, 6′-(Methyl-trans-3-amino-cyclobutyl)-2′-guanidinium-sisomicin], the MIC with P. aeruginosa ATCC 27853 [1] (setting [6]) is less than 1 µg/mL; with E. coli ATCC 25922 (ATCC25922, 20 h) it was 1 to 16 µg/mL (≈ 1.75 to 27.9 µM).

On to `CNCC1=CC[C@@H](NC(=N)N)[C@@H](O[C@H]2[C@H](O)[C@@H](O[C@H]3OC[C@](C)(O)[C@H](NC)[C@H]3O)[C@H](N)C[C@@H]2N)O1` [Example 108, 6′-Methyl-2′-guanidinium-sisomicin], for which the MIC in the assay on P. aeruginosa ATCC 27853 [1] (setting [6]) is 1 to 16 µg/mL (≈ 1.99 to 31.8 µM); with E. coli ATCC 25922 (ATCC25922, 20 h) it was less than 1 µg/mL.

Source of the values: patent publication US11117915B2, “Antibacterial aminoglycoside analogs” (Cipla USA, Inc., priority 2007, dated 2021).
